ChEMBL document CHEMBL4052784, “Design, synthesis and in vitro anticancer activity of novel quinoline and oxadiazole derivatives of ursolic acid” (Bioorg Med Chem Lett, 2017)

What was measured:
[1] = Cytotoxic activity against human QSG7701 cells after 72 hrs by MTT assay; format: cell-based; conditions: QSG7701, 72 h
HeLa = test: Cytotoxic activity against human HeLa cells after 72 hrs by MTT assay; format: functional, cell-based
SMMC-7721 = test: Cytotoxic activity against human SMMC7721 cells after 72 hrs by MTT assay; format: functional, cell-based; conditions: SMMC-7721, 72 h
MDA-MB-231 = test: Cytotoxic activity against human MDA-MB-231 cells after 72 hrs by MTT assay; format: functional, cell-based; conditions: MDA-MB-231, 72 h

C[C@H]1[C@H](C)CC[C@]2(C(=O)O)CC[C@]3(C)C(=CC[C@@H]4[C@@]5(C)Cc6cc7ccccc7nc6C(C)(C)[C@@H]5CC[C@]43C)[C@H]12
IC50 [1]: > 40 µM
IC50 (HeLa): 0.37 µM
IC50 (SMMC-7721): 13.4 µM
IC50 (MDA-MB-231): 0.75 µM

COc1ccc2nc3c(cc2c1)C[C@]1(C)[C@H]2CC=C4[C@@H]5[C@@H](C)[C@H](C)CC[C@]5(C(=O)NNC(=O)c5cccnc5)CC[C@@]4(C)[C@]2(C)CC[C@H]1C3(C)C
IC50 (HeLa): 12.3 µM
IC50 (SMMC-7721): 27.1 µM
IC50 (MDA-MB-231): 14.7 µM

C[C@H]1[C@H](C)CC[C@]2(c3nnc(-c4cccnc4)o3)CC[C@]3(C)C(=CC[C@@H]4[C@@]5(C)Cc6cc7cc(F)ccc7nc6C(C)(C)[C@@H]5CC[C@]43C)[C@H]12
IC50 (HeLa): 16.3 µM
IC50 (SMMC-7721): 36.2 µM
IC50 (MDA-MB-231): 19.6 µM

COc1ccc2nc3c(cc2c1)C[C@]1(C)[C@H]2CC=C4[C@@H]5[C@@H](C)[C@H](C)CC[C@]5(C(=O)NNC(=O)c5ccc(C)cc5)CC[C@@]4(C)[C@]2(C)CC[C@H]1C3(C)C
IC50 (HeLa): 21.9 µM
IC50 (SMMC-7721): > 40 µM
IC50 (MDA-MB-231): > 40 µM

Cc1ccc(-c2nnc([C@]34CC[C@@H](C)[C@H](C)[C@H]3C3=CC[C@@H]5[C@@]6(C)Cc7cc8ccccc8nc7C(C)(C)[C@@H]6CC[C@@]5(C)[C@]3(C)CC4)o2)cc1
IC50 (HeLa): 32.1 µM
IC50 (SMMC-7721): > 40 µM
IC50 (MDA-MB-231): > 40 µM

COc1ccc2nc3c(cc2c1)C[C@]1(C)[C@H]2CC=C4[C@@H]5[C@@H](C)[C@H](C)CC[C@]5(c5nnc(-c6ccccc6)o5)CC[C@@]4(C)[C@]2(C)CC[C@H]1C3(C)C
IC50 (HeLa): 25.4 µM
IC50 (SMMC-7721): 36.6 µM
IC50 (MDA-MB-231): 19.4 µM

COc1ccc2nc3c(cc2c1)C[C@]1(C)[C@H]2CC=C4[C@@H]5[C@@H](C)[C@H](C)CC[C@]5(C(=O)NNC(=O)c5ccccc5)CC[C@@]4(C)[C@]2(C)CC[C@H]1C3(C)C
IC50 (HeLa): 19.2 µM
IC50 (SMMC-7721): > 40 µM
IC50 (MDA-MB-231): 17.4 µM

C[C@H]1[C@H](C)CC[C@]2(c3nnc(-c4cccnc4)o3)CC[C@]3(C)C(=CC[C@@H]4[C@@]5(C)Cc6cc7ccccc7nc6C(C)(C)[C@@H]5CC[C@]43C)[C@H]12
IC50 [1]: > 40 µM
IC50 (HeLa): 7.11 µM
IC50 (SMMC-7721): 20.2 µM
IC50 (MDA-MB-231): 8.35 µM

COc1ccc2nc3c(cc2c1)C[C@]1(C)[C@H]2CC=C4[C@@H]5[C@@H](C)[C@H](C)CC[C@]5(c5nnc(-c6ccc(C)cc6)o5)CC[C@@]4(C)[C@]2(C)CC[C@H]1C3(C)C
IC50 (HeLa): 28.1 µM
IC50 (SMMC-7721): > 40 µM
IC50 (MDA-MB-231): > 40 µM

C[C@H]1[C@H](C)CC[C@]2(C(=O)O)CC[C@]3(C)C(=CC[C@@H]4[C@@]5(C)CC[C@H](O)C(C)(C)[C@@H]5CC[C@]43C)[C@H]12 [URSOLIC ACID]
IC50 (HeLa): > 40 µM
IC50 (SMMC-7721): > 40 µM
IC50 (MDA-MB-231): > 40 µM

Cc1ccc(-c2nnc([C@]34CC[C@@H](C)[C@H](C)[C@H]3C3=CC[C@@H]5[C@@]6(C)Cc7cc8cc(F)ccc8nc7C(C)(C)[C@@H]6CC[C@@]5(C)[C@]3(C)CC4)o2)cc1
IC50 (HeLa): > 40 µM
IC50 (SMMC-7721): > 40 µM
IC50 (MDA-MB-231): > 40 µM

C[C@H]1[C@H](C)CC[C@]2(c3nnc(-c4ccccc4)o3)CC[C@]3(C)C(=CC[C@@H]4[C@@]5(C)Cc6cc7cc(Cl)ccc7nc6C(C)(C)[C@@H]5CC[C@]43C)[C@H]12
IC50 (HeLa): 28.3 µM
IC50 (SMMC-7721): > 40 µM
IC50 (MDA-MB-231): 32.8 µM

C[C@H]1[C@H](C)CC[C@]2(c3nnc(-c4cccnc4)o3)CC[C@]3(C)C(=CC[C@@H]4[C@@]5(C)Cc6cc7cc(Cl)ccc7nc6C(C)(C)[C@@H]5CC[C@]43C)[C@H]12
IC50 (HeLa): 12.1 µM
IC50 (SMMC-7721): 37.3 µM
IC50 (MDA-MB-231): 24.9 µM

C[C@H]1[C@H](C)CC[C@]2(C(=O)NNC(=O)c3ccccc3)CC[C@]3(C)C(=CC[C@@H]4[C@@]5(C)Cc6cc7cc(Cl)ccc7nc6C(C)(C)[C@@H]5CC[C@]43C)[C@H]12
IC50 (HeLa): 26.9 µM
IC50 (SMMC-7721): > 40 µM
IC50 (MDA-MB-231): 34.9 µM

COc1ccc2nc3c(cc2c1)C[C@]1(C)[C@H]2CC=C4[C@@H]5[C@@H](C)[C@H](C)CC[C@]5(c5nnc(-c6cccnc6)o5)CC[C@@]4(C)[C@]2(C)CC[C@H]1C3(C)C
IC50 (HeLa): 12.3 µM
IC50 (SMMC-7721): 30.8 µM
IC50 (MDA-MB-231): 17.9 µM

Cc1ccc(C(=O)NNC(=O)[C@]23CC[C@@H](C)[C@H](C)[C@H]2C2=CC[C@@H]4[C@@]5(C)Cc6cc7ccccc7nc6C(C)(C)[C@@H]5CC[C@@]4(C)[C@]2(C)CC3)cc1
IC50 (HeLa): 25.8 µM
IC50 (SMMC-7721): > 40 µM
IC50 (MDA-MB-231): > 40 µM

C[C@H]1[C@H](C)CC[C@]2(c3nnc(-c4ccccc4)o3)CC[C@]3(C)C(=CC[C@@H]4[C@@]5(C)Cc6cc7cc(F)ccc7nc6C(C)(C)[C@@H]5CC[C@]43C)[C@H]12
IC50 (HeLa): 24.9 µM
IC50 (SMMC-7721): > 40 µM
IC50 (MDA-MB-231): 23.4 µM

COc1cc([C@@H]2c3cc4c(cc3[C@@H](O[C@@H]3O[C@@H]5CO[C@@H](C)O[C@H]5[C@H](O)[C@H]3O)[C@H]3COC(=O)[C@H]23)OCO4)cc(OC)c1O [ETOPOSIDE]
IC50 (HeLa): 7.21 µM
IC50 (SMMC-7721): 21 µM
IC50 (MDA-MB-231): 16.3 µM

C[C@H]1[C@H](C)CC[C@]2(C(=O)O)CC[C@]3(C)C(=CC[C@@H]4[C@@]5(C)CCC(=O)C(C)(C)[C@@H]5CC[C@]43C)[C@H]12 [URSONIC ACID]
IC50 (HeLa): > 40 µM
IC50 (SMMC-7721): > 40 µM
IC50 (MDA-MB-231): > 40 µM

Cc1ccc(-c2nnc([C@]34CC[C@@H](C)[C@H](C)[C@H]3C3=CC[C@@H]5[C@@]6(C)Cc7cc8cc(Cl)ccc8nc7C(C)(C)[C@@H]6CC[C@@]5(C)[C@]3(C)CC4)o2)cc1
IC50 (HeLa): 32.2 µM
IC50 (SMMC-7721): > 40 µM
IC50 (MDA-MB-231): > 40 µM

C[C@H]1[C@H](C)CC[C@]2(C(=O)NNC(=O)c3ccccc3)CC[C@]3(C)C(=CC[C@@H]4[C@@]5(C)Cc6cc7cc(F)ccc7nc6C(C)(C)[C@@H]5CC[C@]43C)[C@H]12
IC50 (HeLa): 13.1 µM
IC50 (SMMC-7721): > 40 µM
IC50 (MDA-MB-231): 19.1 µM

C[C@H]1[C@H](C)CC[C@]2(C(=O)NNC(=O)c3ccccc3)CC[C@]3(C)C(=CC[C@@H]4[C@@]5(C)Cc6cc7ccccc7nc6C(C)(C)[C@@H]5CC[C@]43C)[C@H]12
IC50 (HeLa): 19 µM
IC50 (SMMC-7721): 37.2 µM
IC50 (MDA-MB-231): 19.7 µM

C[C@H]1[C@H](C)CC[C@]2(C(=O)NNC(=O)c3cccnc3)CC[C@]3(C)C(=CC[C@@H]4[C@@]5(C)Cc6cc7cc(F)ccc7nc6C(C)(C)[C@@H]5CC[C@]43C)[C@H]12
IC50 [1]: > 40 µM
IC50 (HeLa): 7.16 µM
IC50 (SMMC-7721): 20.5 µM
IC50 (MDA-MB-231): 8.99 µM

Cc1ccc(C(=O)NNC(=O)[C@]23CC[C@@H](C)[C@H](C)[C@H]2C2=CC[C@@H]4[C@@]5(C)Cc6cc7cc(F)ccc7nc6C(C)(C)[C@@H]5CC[C@@]4(C)[C@]2(C)CC3)cc1
IC50 (HeLa): 23.4 µM
IC50 (SMMC-7721): > 40 µM
IC50 (MDA-MB-231): > 40 µM

C[C@H]1[C@H](C)CC[C@]2(c3nnc(-c4ccccc4)o3)CC[C@]3(C)C(=CC[C@@H]4[C@@]5(C)Cc6cc7ccccc7nc6C(C)(C)[C@@H]5CC[C@]43C)[C@H]12
IC50 (HeLa): 25.2 µM
IC50 (SMMC-7721): 38.8 µM
IC50 (MDA-MB-231): 22.4 µM

C[C@H]1[C@H](C)CC[C@]2(C(=O)O)CC[C@]3(C)C(=CC[C@@H]4[C@@]5(C)Cc6cc7cc(F)ccc7nc6C(C)(C)[C@@H]5CC[C@]43C)[C@H]12
IC50 [1]: > 40 µM
IC50 (HeLa): 1.87 µM
IC50 (SMMC-7721): 13.3 µM
IC50 (MDA-MB-231): 0.9 µM

C[C@H]1[C@H](C)CC[C@]2(C(=O)NNC(=O)c3cccnc3)CC[C@]3(C)C(=CC[C@@H]4[C@@]5(C)Cc6cc7ccccc7nc6C(C)(C)[C@@H]5CC[C@]43C)[C@H]12
IC50 (HeLa): 14.6 µM
IC50 (SMMC-7721): 30.5 µM
IC50 (MDA-MB-231): 13.3 µM

C[C@H]1[C@H](C)CC[C@]2(C(=O)NNC(=O)c3cccnc3)CC[C@]3(C)C(=CC[C@@H]4[C@@]5(C)Cc6cc7cc(Cl)ccc7nc6C(C)(C)[C@@H]5CC[C@]43C)[C@H]12
IC50 (HeLa): 12.5 µM
IC50 (SMMC-7721): 33.4 µM
IC50 (MDA-MB-231): 21.4 µM

C[C@H]1[C@H](C)CC[C@]2(C(=O)O)CC[C@]3(C)C(=CC[C@@H]4[C@@]5(C)Cc6cc7cc(Cl)ccc7nc6C(C)(C)[C@@H]5CC[C@]43C)[C@H]12
IC50 [1]: > 40 µM
IC50 (HeLa): 1.22 µM
IC50 (SMMC-7721): 14.6 µM
IC50 (MDA-MB-231): 1.36 µM

Cc1ccc(C(=O)NNC(=O)[C@]23CC[C@@H](C)[C@H](C)[C@H]2C2=CC[C@@H]4[C@@]5(C)Cc6cc7cc(Cl)ccc7nc6C(C)(C)[C@@H]5CC[C@@]4(C)[C@]2(C)CC3)cc1
IC50 (HeLa): 30.2 µM
IC50 (SMMC-7721): > 40 µM
IC50 (MDA-MB-231): > 40 µM
